Results on 32 compounds are retold here after patent US10774064B2 (Cadent Therapeutics, Inc., priority 2016, dated 2020).

The assay concerns the target T1, small-conductance Ca2+-activated K+ channels (SK channels, subtype 2) (Homo sapiens, UniProt Q9H2S1).
T1 construct: expressed in transfected cells; host or cells: HEK293
Put plainly: whole-cell patch-clamp of ionic current through SK2 channels in HEK293 cells (SC100). The class given is cell-based. As to conditions: concentration that increases the basal current by 100%; HEK293 cells expressing SK2 channels. A digest of the protocol:
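SC100, the concentration doubling basal current (a 100% increase), was taken from SK2 currents recorded by whole-cell patch-clamp in SK2-expressing HEK293 cells.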
Background: The patch-clamp technique gives a direct electrical read-out from membranes.
Consider `Cc1cc(C)n(-c2cc(C3CC3)nc(NC3CCC(F)(F)CC3)n2)n1` [Compound 226, 4-cyclopropyl-N-(4,4-difluorocyclohexyl)-6-(3,5-dimethyl-1H-pyrazol-1-yl)pyrimidin-2-amine], for which the SC100 result is “++ (++ means 200 nM-1000 nM)”.
The result for `Cc1cc(C)n(-c2nc(NC3CCC(F)(F)CC3)cc(N3CCOC(C(C)(C)O)C3)n2)n1` (centres unmarked) [Compound 227, 2-(4-(6-((4,4-difluorocyclohexyl)amino)-2-(3,5-dimethyl-1H-pyrazol-1-yl)pyrimidin-4-yl)morpholin-2-yl)propan-2-ol] reads “++ (++ means 200 nM-1000 nM)”; that for `Cc1cc(C)n(-c2cc(NC3COC3)cc(NC3CCC(F)(F)CC3)n2)n1` [Compound 228, N2-(4,4-difluorocyclohexyl)-6-(3,5-dimethyl-1H-pyrazol-1-yl)-N4-(oxetan-3-yl)pyridine-2,4-diamine], “++ (++ means 200 nM-1000 nM)”.
For `Cc1cc(C)n(-c2cc(CF)cc(NC3CCC(F)(F)CC3)n2)n1` [Compound 229, N-(4,4-difluorocyclohexyl)-6-(3,5-dimethyl-1H-pyrazol-1-yl)-4-(fluoromethyl)pyridin-2-amine] the value was “++ (++ means 200 nM-1000 nM)”; for `Cc1cc(NC2CCC(F)(F)CC2)nc(-c2cccc(Cl)n2)n1` [Compound 230, 2-(6-chloropyridin-2-yl)-N-(4,4-difluorocyclohexyl)-6-methyl pyrimidin-4-amine], “+ (+ means >1 uM)”.
For `Cc1cc(NC2CCC(F)(F)CC2)nc(-c2nc(C)cs2)n1` [Compound 231, N-(4,4-difluorocyclohexyl)-6-methyl-2-(4-methylthiazol-2-yl)pyrimidin-4-amine] the value was “++ (++ means 200 nM-1000 nM)”; for `Cc1ccn(-c2nc(NC3CCC(F)(F)CC3)cc(C3COCCC3O)n2)n1` (centres unmarked) [Compound 232, 3-(6-((4,4-difluorocyclohexyl)amino)-2-(3-methyl-1H-pyrazol-1-yl)pyrimidin-4-yl)tetrahydro-2H-pyran-4-ol], “+ (+ means >1 uM)”.
For the compound `Cc1cc(C)n(-c2nc(NCc3cn(C)nn3)cc(NC3CCC(F)(F)CC3)n2)n1` [Compound 233, N4-(4,4-difluorocyclohexyl)-2-(3,5-dimethyl-1H-pyrazol-1-yl)-N6-((1-methyl-1H-1,2,3-triazol-4-yl)methyl)pyrimidine-4,6-diamine], the SC100 result is on record as “++ (++ means 200 nM-1000 nM)”.
For `Cc1cc(C)n(-c2cc(NCC(C)(C)C)cc(NC3CCC(F)(F)CC3)n2)n1` [Compound 234, N2-(4,4-difluorocyclohexyl)-6-(3,5-dimethyl-1H-pyrazol-1-yl)-N4-neopentylpyridine-2,4-diamine] the value was “+ (+ means >1 uM)”; for `Cc1cc(C)n(-c2nc(NCc3cnn(C)n3)cc(NC3CCC(F)(F)CC3)n2)n1` [Compound 235, N4-(4,4-difluorocyclohexyl)-2-(3,5-dimethyl-1H-pyrazol-1-yl)-N6-((2-methyl-2H-1,2,3-triazol-4-yl)methyl)pyrimidine-4,6-diamine], “++ (++ means 200 nM-1000 nM)”.
The result for `Cc1cc(NC2CCC(F)(F)CC2)nc(-n2cc(C)c(CO)n2)n1` [Compound 236, (1-(4-((4,4-difluorocyclohexyl)amino)-6-methylpyrimidin-2-yl)-4-methyl-1H-pyrazol-3-yl)methanol] reads “+ (+ means >1 uM)”; that for `Cc1cc(NC2CCC(F)(F)CC2)nc(-n2nc(C(F)F)cc2C)n1` [Compound 237, N-(4,4-difluorocyclohexyl)-2-(3-(difluoromethyl)-5-methyl-1H-pyrazol-1-yl)-6-methylpyrimidin-4-amine], “++ (++ means 200 nM-1000 nM)”; that for `Cc1cc(C)n(-c2cc(N(C)C3COC3)cc(NC3CCC(F)(F)CC3)n2)n1` [Compound 238, N2-(4,4-difluorocyclohexyl)-6-(3,5-dimethyl-1H-pyrazol-1-yl)-N4-methyl-N4-(oxetan-3-yl)pyridine-2,4-diamine], “++ (++ means 200 nM-1000 nM)”.
For `Cc1cc(C)n(-c2cc(NC(C(N)=O)C(C)C)cc(NC3CCC(F)(F)CC3)n2)n1` (centres unmarked) [Compound 239, 2-((2-((4,4-difluorocyclohexyl)amino)-6-(3,5-dimethyl-1H-pyrazol-1-yl)pyridin-4-yl)amino)-3-methylbutanamide] the value was “++ (++ means 200 nM-1000 nM)”; for `Cc1cc(C)n(-c2cc(N(C)C3COC3)cc(N(C)C3CCC(F)(F)CC3)n2)n1` [Compound 240, N2-(4,4-difluorocyclohexyl)-6-(3,5-dimethyl-1H-pyrazol-1-yl)-N2,N4-dimethyl-N4-(oxetan-3-yl)pyridine-2,4-diamine], “+ (+ means >1 uM)”; for `Cc1cc(NC2CCC(F)(F)CC2)nc(-n2nc(CO)cc2C)n1` [Compound 241, (1-(4-((4,4-difluorocyclohexyl)amino)-6-methylpyrimidin-2-yl)-5-methyl-1H-pyrazol-3-yl)methanol], “+ (+ means >1 uM)”.
In the case of `Cc1ccn(-c2nc(NC3CCC(F)(F)CC3)cc(C3COCCC3(F)F)n2)n1` (centres unmarked) [Compound 242, N-(4,4-difluorocyclohexyl)-6-(4,4-difluorotetrahydro-2H-pyran-3-yl)-2-(3-methyl-1H-pyrazol-1-yl)pyrimidin-4-amine], the SC100 entry is “+ (+ means >1 uM)”.
As for `Cc1cc(C)n(-c2nc(NC3CCC(F)(F)CC3)cc(NC3COC3)n2)n1` [Compound 243, N4-(4,4-difluorocyclohexyl)-2-(3,5-dimethyl-1H-pyrazol-1-yl)-N6-(oxetan-3-yl)pyrimidine-4,6-diamine], the SC100 entry is “+ (+ means >1 uM)”.
For `Cc1cc(C)n(-c2cc(OCc3cn(C)nn3)cc(NC3CCC(F)(F)CC3)n2)n1` [Compound 244, N-(4,4-difluorocyclohexyl)-6-(3,5-dimethyl-1H-pyrazol-1-yl)-4-((l-methyl-1H-1,2,3-triazol-4-yl)methoxy)pyridin-2-amine] the value was “++ (++ means 200 nM-1000 nM)”; for `Cc1cc(NC2C[C@@H]3[C@H](C2)C3(F)F)nc(-n2ccc(C)n2)n1` (stereo partly drawn) [Compound 245, N-((1R,5S)-6,6-difluorobicyclo[3.1.0]hexan-3-yl)-6-methyl-2-(3-methyl-1H-pyrazol-1-yl)pyrimidin-4-amine], “+ (+ means >1 uM)”.
The result for `Cc1cc(NC2CCC(F)(F)CC2)nc(-n2cc(C)c(C(F)F)n2)n1` [Compound 246, N-(4,4-difluorocyclohexyl)-2-(3-(difluoromethyl)-4-methyl-1H-pyrazol-1-yl)-6-methylpyrimidin-4-amine] reads “+++ (+++ means <200 nM)”; that for `Cc1cc(NC2CCC(F)(F)CC2)nc(-n2nc(C)cc2C)n1` [Compound 247, N-(4,4-difluorocyclohexyl)-2-(3,5-dimethyl-1H-pyrazol-1-yl)-6-methylpyrimidin-4-amine], “++ (++ means 200 nM-1000 nM)”.
The result for `Cc1cc(C)n(-c2cc(NCc3cnn(C)n3)cc(NC3CCC(F)(F)CC3)n2)n1` [Compound 248, N2-(4,4-difluorocyclohexyl)-6-(3,5-dimethyl-1H-pyrazol-1-yl)-N4-((2-methyl-2H-1,2,3-triazol-4-yl)methyl)pyridine-2,4-diamine] reads “++ (++ means 200 nM-1000 nM)”; that for `CCc1cc(C)n(-c2nc(C)cc(NC3CCC(F)(F)CC3)n2)n1` [Compound 249, N-(4,4-difluorocyclohexyl)-2-(3-ethyl-5-methyl-1H-pyrazol-1-yl)-6-methyl pyrimidin-4-amine], “+ (+ means >1 uM)”.
Turning to `Cc1cc(C)n(-c2cc(NCc3cnnn3C)cc(NC3CCC(F)(F)CC3)n2)n1` [Compound 250, N2-(4,4-difluorocyclohexyl)-6-(3,5-dimethyl-1H-pyrazol-1-yl)-N4-((1-methyl-1H-1,2,3-triazol-5-yl)methyl)pyridine-2,4-diamine], the SC100 entry is listed as “++ (++ means 200 nM-1000 nM)”.
For `Cc1cc(C)n(-c2cc(OCc3cnn(C)n3)cc(NC3CCC(F)(F)CC3)n2)n1` [Compound 251, N-(4,4-difluorocyclohexyl)-6-(3,5-dimethyl-1H-pyrazol-1-yl)-4-((2-methyl-2H-1,2,3-triazol-4-yl)methoxy)pyridin-2-amine] the value was “++ (++ means 200 nM-1000 nM)”.
The result for `Cc1cc(C)n(-c2cc(NCc3nnc(C)o3)cc(NC3CCC(F)(F)CC3)n2)n1` [Compound 252, N2-(4,4-difluorocyclohexyl)-6-(3,5-dimethyl-1H-pyrazol-1-yl)-N4-((5-methyl-1,3,4-oxadiazol-2-yl)methyl)pyridine-2,4-diamine] reads “+ (+ means >1 uM)”; that for `Cc1cc(NC2CCC(F)(F)CC2)nc(-n2cc(C)c(C#N)n2)n1` [Compound 253, 1-(4-((4,4-difluorocyclohexyl)amino)-6-methylpyrimidin-2-yl)-4-methyl-1H-pyrazole-3-carbonitrile], “++ (++ means 200 nM-1000 nM)”; that for `Cc1cc(C)n(-c2nc(NC3CCC(F)(F)CC3)cc([C@@H]3COCC[C@H]3O)n2)n1` [Compound 254, (+)-3-(6-((4,4-difluorocyclohexyl)amino)-2-(3,5-dimethyl-1H-pyrazol-1-yl)pyrimidin-4-yl)tetrahydro-2H-pyran-4-ol], “+ (+ means >1 uM)”.
For `Cc1cc(C)n(-c2cc(NC(C)c3nccs3)cc(NC3CCC(F)(F)CC3)n2)n1` (centres unmarked) [Compound 255, N2-(4,4-difluorocyclohexyl)-6-(3,5-dimethyl-1H-pyrazol-1-yl)-N4-(1-(thiazol-2-yl)ethyl)pyridine-2,4-diamine] the value was “+ (+ means >1 uM)”; for `Cc1cc(NC2CCC(F)(F)CC2)nc(-n2nc(CF)cc2C)n1` [Compound 256, N-(4,4-difluorocyclohexyl)-2-(3-(fluoromethyl)-5-methyl-1H-pyrazol-1-yl)-6-methylpyrimidin-4-amine], “++ (++ means 200 nM-1000 nM)”; for `Cc1cc(NC2CCC(F)(F)CC2)nc(-n2cc(C)c(CF)n2)n1` [Compound 258, N-(4,4-difluorocyclohexyl)-2-(3-(fluoromethyl)-4-methyl-1H-pyrazol-1-yl)-6-methylpyrimidin-4-amine], “++ (++ means 200 nM-1000 nM)”.
